Measurements published in patent US20160281050A1, “METHODS FOR TREATING A CULTURE OF HAEMATOCOCCUS PLUVIALIS FOR CONTAMINATION USING SALT AND HYDROGEN PEROXIDE” (HELIAE DEVELOPMENT LLC, priority 2015, published 2016).
Like-named read-outs stand apart in the source and are kept apart here.

Key:
[1] = system: pure chytrid culture; experiment: Chytrid tolerance: pure chytrid culture in well plate, observed under a microscope (Examples 13-14); assay type: cell-based
Protocol: Experiments were performed to determine chytrid tolerance to bleach, salt, Lufenuron (chemical biocide), and Rid Fungus (blend of natural organic herbs) for evaluation as a treatment for chytrids. A pure chytrid culture in a well plate was treated every 24 hours and observed under a microscope to determine the effect. An untreated culture was used as a control for comparison purposes. Qualitative assessments and quantitative estimates were made by visual observation under a microscope.
Several concentrations of salt and Rid Fungus (blend of organic herbs) were further investigated as a chytrid treatment, as in Example 13. A pure chytrid culture in a well plate was treated and visually observed under a microscope to determine the effect. An untreated culture was used as a control for comparison purposes.

[2] = system: Haematococcus pluvialis (Strain 2); experiment: % cell lysis and culture dry weight in flasks, salt treatment (Example 12); assay type: cell-based
Protocol: This test was done side by side in flasks (0.1 L) and in reactors located in a greenhouse operating in conditions: reactor volume of 230 L; Daily PAR of 20 mol m^−2 d^−1; pH (not measured); and paddlewheel speed of 21 RPM. […] The flask cultures were mixed by shaking at 140 rpm and received 300-400 μmol/m^2 s of photosynthetically active radiation (PAR) in 12 hour light cycles and constant supply of 2.5% CO2. The motility of the culture was monitored by visual observation under a microscope. […] Nine 230 L reactors were also seeded with culture from bioreactor #2410 on the same day as the flasks and brought to 2 ppt concentration of salt. Once motility of the cells was reduced to <10% (day 3 of culture for flasks and day 2 for 230 L reactors) the level of salt was elevated to a point between 4-18 ppt and compared to the culture in two reactors remaining at 2 ppt salt. Flasks and 230 L reactors were monitored for percentage of cell lysis via visual observation under a microscope, culture dry weight (biomass accumulation in g/L), and percentage of chytrid infection via visual observation under a microscope. Carotenoid production, a proxy for determining astaxanthin, was quantified every other day of culture in the 230 L reactors using the UV method.

[3] = system: Haematococcus pluvialis (Strain 2); experiment: % lysis and culture dry weight in flasks (Example 11)
Source text: Culture samples of Haematococcus pluvialis (Strain 2) were collected on the second day of culture from open raceway bioreactor #2410 operating in conditions: reactor volume of 150,000 L; Daily PAR of 9.77 mol m^−2 d^−1; pH of 7.3; and paddlewheel speed of 70%. Culture samples were distributed into flasks for culturing, consisting of duplicate untreated controls and duplicate treatments. […] Samples were taken from the flask cultures daily to quantify % lysis and % chytrid infection and cell dry weight was quantified every other day for a duration of 11 days.

[4] = system: Haematococcus pluvialis (Strain 2); experiment: % lysis and culture dry weight in flasks (Example 9); conditions: for percent lysis: by day 5;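 on all read-outs here: flask cultures run in duplicate for each treatment, alongside duplicate untreated control flasks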
Source text: Culture samples of Haematococcus pluvialis (Strain 2) were collected on day 5 of the culture from open raceway bioreactor #2420 operating in conditions: reactor volume of 170,000 L; Daily PAR not measured; pH of 7.3; and paddlewheel speed of 70%). Culture samples were distributed into flasks for culturing, consisting of duplicate untreated controls and duplicate treatments. […] Samples were taken from the flask cultures every few days in order to quantify % lysis, % chytrid infection, and cell dry weight for a duration of about 11 days.

[5] = system: live bacteria; conditions: 0.0099 mL/L every 6 hours
Protocol: An experiment was conducted to determine if treating a culture of Haematococcus pluvialis with hydrogen peroxide affects the live bacteria count. […] The culture in bioreactor #2210 was treated with 0.33 mL/L hydrogen peroxide 3% stock concentration (calculated concentration of 0.0099 mL/L) every 6 hours for the duration of the culture's green swimmer stage (90 hours). The culture in bioreactor #2230 was not treated to serve as a control for comparison. Samples were taken to assess motility, lysis, and the live bacteria count in the cultures at 11, 34, 52, and 66 hours.

[6] = dosed 0.015 mL/L; carboy and open raceway pond samples
[7] = system: Nitrogen fixing bacteria including Rhizobium, Emticicia, and Sinorhizobium; conditions: after the hydrogen peroxide treatments in bioreactor #2320 (from 20-40%)
Source text: A series of Haematococcus pluvialis (Strain 1) cultures were compared using bacterial community sequencing (SSU rRNA 16s) to analyze the bacterial community of the cultures during a lysis event, a chytrid infection, and during treatment with hydrogen peroxide to determine if the bacteria community shifts or produces a detectable pattern.

[Cl-].[Na+] [NaCl, sodium chloride]
microscope observation of pure chytrid culture ([1]; Example 13, 20 ppt, after 1 hour): clumped sporangia and zoospores
microscope observation of pure chytrid culture ([1]; Example 13, 20 ppt, after 24 hours): Wilting sporangia and no zoospores
microscope observation of pure chytrid culture ([1]; Example 13, 20 ppt, after 48 hours): bacteria with shriveled zoospores and sporangia
microscope observation of pure chytrid culture ([1]; Example 13, 20 ppt, after 72 hours): no zoospores or sporangia
microscope observation of pure chytrid culture ([1]; Example 14, 5 ppt, after 1 hour): a less dense mass of zoospores with some being motile but sluggish
microscope observation of pure chytrid culture ([1]; Example 14, 5 ppt, after 4.5 hours): A mix of non-motile and motile zoospores
microscope observation of pure chytrid culture ([1]; Example 14, 10 ppt, after 1 hour): a mass of zoospores at the same density as the 5 ppt treatment but with all being non-motile
microscope observation of pure chytrid culture ([1]; Example 14, 10 ppt, after 4.5 hours): Non-motile zoospores only
microscope observation of pure chytrid culture ([1]; Example 14, 20 ppt, after 1 hour): a mass of zoospores less dense than mass of the 5 and 10 ppt treatments but with all being non-motile
microscope observation of pure chytrid culture ([1]; Example 14, 20 ppt, after 4.5 hours): Non-motile zoospores only
% Cell Lysis in Flasks ([2]; 2 ppt, 9 d): 0 ± 0%
% Cell Lysis in Flasks ([2]; 2 ppt, 11 d): 0 ± 0%
% Cell Lysis in Flasks ([2]; 4 ppt, 9 d): 0 ± 0%
% Cell Lysis in Flasks ([2]; 4 ppt, 11 d): 0 ± 0%
% Cell Lysis in Flasks ([2]; 5 ppt, 9 d): 0 ± 0%
% Cell Lysis in Flasks ([2]; 5 ppt, 11 d): 1 ± 1%
% Cell Lysis in Flasks ([2]; 6 ppt, 9 d): 4 ± 3%
% Cell Lysis in Flasks ([2]; 6 ppt, 11 d): 5 ± 4%
% Cell Lysis in Flasks ([2]; 7 ppt, 9 d): 0 ± 0%
% Cell Lysis in Flasks ([2]; 7 ppt, 11 d): 7 ± 3%
% Cell Lysis in Flasks ([2]; 8 ppt, 9 d): 3 ± 2%
% Cell Lysis in Flasks ([2]; 8 ppt, 11 d): 2 ± 0%
% Cell Lysis in Flasks ([2]; 9 ppt, 9 d): 0 ± 0%
% Cell Lysis in Flasks ([2]; 9 ppt, 11 d): 2 ± 0%
% Cell Lysis in Flasks ([2]; 10 ppt, 9 d): 1 ± 1%
% Cell Lysis in Flasks ([2]; 10 ppt, 11 d): 3 ± 1%
% Cell Lysis in Flasks ([2]; 11 ppt, 9 d): 0 ± 0%
% Cell Lysis in Flasks ([2]; 11 ppt, 11 d): 1 ± 1%
cell lysis ([2]; flasks, all treatments): below 10%

hydrogen peroxide [H2O2]
% Lysis ([3]; 0.0105 mL/L 1 time daily for 3 days, day 1): 5.0 ± 5.0%
% Lysis ([3]; 0.0105 mL/L 1 time daily for 3 days, day 2): 3.3 ± 0.0%
% Lysis ([3]; 0.0105 mL/L 1 time daily for 3 days, day 3): 7.5 ± 1.2%
% Lysis ([3]; 0.0105 mL/L 1 time daily for 3 days, day 4): 0.8 ± 1.2%
% Lysis ([3]; 0.0105 mL/L 1 time daily for 3 days, day 5): 5.0 ± 0.0%
% Lysis ([3]; 0.0105 mL/L 1 time daily for 3 days, day 6): 4.2 ± 1.2%
% Lysis ([3]; 0.0105 mL/L 1 time daily for 3 days, day 7): 1.7 ± 2.4%
% Lysis ([3]; 0.0105 mL/L 1 time every other day, day 1): 5.0 ± 5.0%
% Lysis ([3]; 0.0105 mL/L 1 time every other day, day 2): 3.3 ± 2.4%
% Lysis ([3]; 0.0105 mL/L 1 time every other day, day 3): 4.2 ± 1.2%
% Lysis ([3]; 0.0105 mL/L 1 time every other day, day 4): 3.3 ± 0.0%
% Lysis ([3]; 0.0105 mL/L 1 time every other day, day 5): 3.3 ± 2.4%
% Lysis ([3]; 0.0105 mL/L 1 time every other day, day 6): 3.3 ± 2.4%
% Lysis ([3]; 0.0105 mL/L 1 time every other day, day 7): 3.3 ± 0.0%
% Lysis ([3]; 0.0105 mL/L 1 time per day, day 1): 5.0 ± 5.0%
% Lysis ([3]; 0.0105 mL/L 1 time per day, day 2): 2.5 ± 1.2%
% Lysis ([3]; 0.0105 mL/L 1 time per day, day 3): 5.8 ± 3.5%
% Lysis ([3]; 0.0105 mL/L 1 time per day, day 4): 4.2 ± 1.2%
% Lysis ([3]; 0.0105 mL/L 1 time per day, day 5): 4.2 ± 3.5%
% Lysis ([3]; 0.0105 mL/L 1 time per day, day 6): 0.0 ± 0.0%
% Lysis ([3]; 0.0105 mL/L 1 time per day, day 7): 2.4 ± 0.0%
cell lysis ([3]; flasks across treatments, 0.0105 mL/L): below 10%
% Lysis ([4]; 0.0105 mL/L 3 times per day (discontinued day 5), day 6): 3.3 ± 2.4%
% Lysis ([4]; 0.0105 mL/L 3 times per day (discontinued day 5), day 9): 6.7 ± 2.4%
% Lysis ([4]; 0.0105 mL/L 3 times per day (discontinued day 5), day 11): 4.2 ± 3.5%
% Lysis ([4]; 0.0105 mL/L 3 times per day, day 0): 4.2 ± 1.2%
% Lysis ([4]; 0.0105 mL/L 3 times per day, day 3): 0.8 ± 1.2%
% Lysis ([4]; 0.0105 mL/L 3 times per day, day 4): 3.3 ± 2.4%
% Lysis ([4]; 0.0105 mL/L 3 times per day, day 5): 10.8 ± 1.2%
% Lysis ([4]; 0.0140 mL/L 1 time per day (discontinued day 5), day 6): 7.5 ± 1.2%
% Lysis ([4]; 0.0140 mL/L 1 time per day (discontinued day 5), day 9): 10.8 ± 1.2%
% Lysis ([4]; 0.0140 mL/L 1 time per day (discontinued day 5), day 11): 7.5 ± 1.2%
% Lysis ([4]; 0.0140 mL/L 1 time per day, day 0): 4.2 ± 1.2%
% Lysis ([4]; 0.0140 mL/L 1 time per day, day 3): 5.0 ± 2.4%
% Lysis ([4]; 0.0140 mL/L 1 time per day, day 4): 4.2 ± 1.2%
% Lysis ([4]; 0.0140 mL/L 1 time per day, day 5): 10.0 ± 2.4%
% Lysis ([4]; 0.0140 mL/L 2 times per day (discontinued day 5), day 6): 9.7 ± 5.9%
% Lysis ([4]; 0.0140 mL/L 2 times per day (discontinued day 5), day 9): 5.0 ± 0.0%
% Lysis ([4]; 0.0140 mL/L 2 times per day (discontinued day 5), day 11): 0.0 ± 0.0%
% Lysis ([4]; 0.0140 mL/L 2 times per day, day 0): 4.2 ± 1.2%
% Lysis ([4]; 0.0140 mL/L 2 times per day, day 3): 5.0 ± 4.7%
% Lysis ([4]; 0.0140 mL/L 2 times per day, day 4): 3.3 ± 2.4%
% Lysis ([4]; 0.0140 mL/L 2 times per day, day 5): 10.0 ± 2.4%
% Lysis ([4]; 0.0140 mL/L 3 times per day (discontinued day 5), day 6): 55.0 ± 30.6%
% Lysis ([4]; 0.0140 mL/L 3 times per day (discontinued day 5), day 9): 60.0 ± 28.3%
% Lysis ([4]; 0.0140 mL/L 3 times per day (discontinued day 5), day 11): 56.7 ± 33.0%
% Lysis ([4]; 0.0140 mL/L 3 times per day, day 0): 4.2 ± 1.2%
% Lysis ([4]; 0.0140 mL/L 3 times per day, day 3): 2.5 ± 3.5%
% Lysis ([4]; 0.0140 mL/L 3 times per day, day 4): 9.2 ± 1.2%
% Lysis ([4]; 0.0140 mL/L 3 times per day, day 5): 42.5 ± 15.3%
percent lysis ([4]; 0.014 mL/L dosed three times per day): 40%
% Lysis ([4]; 0.0175 mL/L 1 time per day (discontinued day 5), day 6): 6.7 ± 2.4%
% Lysis ([4]; 0.0175 mL/L 1 time per day (discontinued day 5), day 9): 6.7 ± 4.7%
% Lysis ([4]; 0.0175 mL/L 1 time per day (discontinued day 5), day 11): 4.2 ± 3.5%
% Lysis ([4]; 0.0175 mL/L 1 time per day, day 0): 4.2 ± 1.2%
% Lysis ([4]; 0.0175 mL/L 1 time per day, day 3): 2.5 ± 1.2%
% Lysis ([4]; 0.0175 mL/L 1 time per day, day 4): 4.2 ± 1.2%
% Lysis ([4]; 0.0175 mL/L 1 time per day, day 5): 9.2 ± 1.2%
percent lysis ([4]; all treated cultures except 0.014 mL/L three times per day): 10%
reduction in the bacteria count ([5]; vs untreated control): approximately 1 log
Live Bacteria Count ([5]; 11 h): 4.8 × 10^5 CFU/mL
Live Bacteria Count ([5]; 34 h): 5.5 × 10^6 CFU/mL
Live Bacteria Count ([5]; 52 h): 1.8 × 10^5 CFU/mL
Live Bacteria Count ([5]; 66 h): 4.5 × 10^5 CFU/mL
time to concentration below detectable limits [6]: 120 min
time to concentration below level expected to be effective against uniflagellates (calculated concentration 0.0075 mL/L) [6]: 30 min
relative amount of nitrogen fixing bacteria in the dominant bacterial community [7]: less than 10%
